Legend:
Assay type in all cases: in vivo, mouse
[1] = test system: naturally aged C57BL6J mice; experiment: Joint aging (arthritis marker mRNA) in naturally aged mice, Example 21-12, Table 27
Procedure: (§1) 22-month-old female C57BL6J mice (KRIBB Laboratory Animal Resource Center) were acclimated to the experimental environment for one week, after which the aged mice were randomly assigned to experimental and control groups. Eight-week-old, non-aged mice served as controls. LX-403 was mixed in a 10% ethanol solution of PEG400 and administered orally at a concentration of 25 mg/kg daily for 21 days, or administered to the skin, joints, or eyes at a concentration of 1 μM. LX-1801 was mixed in distilled water with 4% DMSO, 30% PEG300, and 5% Tween80 and administered to the skin, joints, or eyes at a concentration of 0.4 μM daily for 21 days. LX-2001 was mixed in PBS and administered to the skin, joints, or eyes at a concentration of […] daily for 21 days. LX-2002 was mixed in distilled water with 4% DMSO, 30% PEG300, and 5% Tween80 and administered to the skin, joints, or eyes at a concentration of 2 μM daily for 21 days. […] LX-2005 was mixed in distilled water with 4% DMSO, 30% PEG300, and 5% Tween80 and administered to the skin, joints, or eyes at a concentration of 90 μM daily for 21 days. LX-2007 was mixed in distilled water with 4% DMSO, 30% PEG300, and 5% Tween80 and administered to the skin, joints, or eyes at a concentration of 90 μM daily for 21 days. […] LX-3002 was mixed in distilled water with 4% DMSO, 30% PEG300, and 5% Tween80 and administered orally at a concentration of 10 mg/kg daily for 21 days. […] LX-5411 was mixed in 5% PBS and administered orally at a concentration of 10 mg/kg daily for 21 days or administered to the skin, joints, or eyes at a concentration of 3 μM. LX-5701 was mixed in PBS and administered orally at a concentration of 360 mg/kg daily for 21 days. LX-6807 was mixed in saline and administered intraperitoneally at a concentration of 1 mg/kg daily for 21 days. LX-2101 or LX-2102 was mixed in PBS solution with 5% DMSO and administered intraperitoneally at a concentration of 20 mg/kg or 10 mg/kg, respectively, daily for 21 days. The control group received only the solution in the same volume. After the end of drug administration, the methods described in each example below were performed.
RNA was extracted from joint tissue as described in Example 7-2 of WO2023-085787 A1, and qRT-PCR was performed using the synthesized cDNA. […] To analyze joint pain due to joint aging, hotplate analysis was performed. Specifically, thermal pain thresholds were measured using a hot plate. After acclimating mice to a temperature of 30° C. for 10 minutes, the time required for hind paw licking or jumping responses to occur at 55° C. was measured. To prevent tissue damage, the response was measured for less than 30 seconds, and the average value was used from five measurements.

[2] = test system: naturally aged C57BL6J mice; experiment: Geriatric depression and anxiety in aged mice, Example 21-8; details: for amount of SASP, p16, SA-β-gal, lipofuscin / symptoms of geriatric depression and anxiety: aged mice; for amount of SASP in serum and tissues: mice of Examples 21-5 and 21-6
Excerpt: The amount of senescent-associated secretory factor (SASP) in serum and tissues collected from mice of Examples 21-5 and 21-6 was reduced by treatment with LX-5701, LX-2101, or LX-2102. It was confirmed that removing senescent cells, which increase with aging in mice, and effectively reducing the amount of senescent-associated secretory factor (SASP) can improve symptoms of geriatric depression and anxiety.

[3] = test system: obesity-induced aged C57BL6J mice; experiment: Anxiety, depression, lethargy (open field test) in obesity-aged mice, Example 23-4, Table 44; details: for geriatric depression: obesity-aged mice; for Open Field Test Time in Center: obesity-induced aged mice, daily for 21 days, activity after obesity-induced aging calculated as 100%
Procedure, shortened: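 Male C57BL6J mice were made obese on a high-fat diet from 15 weeks of age. Compounds were given daily for 21 days: LX-3002 10 mg/kg orally, LX-5701 360 mg/kg orally, LX-6807 1 mg/kg intraperitoneally, with vehicle-treated controls. Open-field activity was then expressed relative to obese untreated mice set at 100%.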

[4] = test system: naturally aged C57BL6J mice; experiment: Osteoclast marker mRNA (Ctsk, Ocstamp, Oscar, Rank, Trap) in femur of naturally aged mice, Example 21-14, Table 29; details: left femur, untreated aged = 100%
Procedure: as §1
Senile osteoporosis is a metabolic bone disease characterized by decreased bone density and a high fracture risk. It occurs in both men and women with aging. The accumulation of senescent cells is known to contribute to osteoporosis by increasing bone resorption by osteoclasts and decreasing bone formation by osteoblasts through the senescence-associated secretory factor (SASP). RNA was extracted from the left femur of mice as described in Example 7-2 WO2023-085787 A1, and qRT-PCR was performed using the synthesized cDNA. […] The amount of each factor after aging was induced was calculated as 100% and compared with the amount of each factor after treatment with the test compound.

Compound | Col2a1 mRNA (fold) [1] | amount of SASP, p16, SA-β-gal, lipofuscin [2] | symptoms of geriatric depression and anxiety [2] | geriatric depression [3] | amount of SASP in serum and tissues [2] | Ctsk mRNA (%) [4] | Ocstamp mRNA (%) [4] | Oscar mRNA (%) [4] | Rank mRNA (%) [4] | Trap mRNA (%) [4] | Open Field Test Time in Center [3]
O=C(C(C[N+](=O)[O-])=NO)N1CCN(C(c2ccc(Cl)cc2)c2ccc(Cl)cc2)CC1 [LX-403] | 2.9 (±0.2) fold | – | – | – | – | – | – | – | – | – | –
COC(=O)c1ccc([C@H]2c3[nH]c4ccccc4c3C[C@H](C(=O)OC)N2C(=O)CCl)cc1 [LX-405] | – | reduced | improved | similarly improving geriatric depression | – | – | – | – | – | – | –
C[C@@H]1CC[C@@]23C[C@H](O)C(=O)[C@@]2(O)[C@]1(C)[C@H](OC(=O)CCl)C[C@@H](C1=CCn2c(=O)n(-c4ccccc4)c(=O)n2C1)[C@@H]3C [LX-1801, (2S,3aS,4S,5R,7R,8S,8aS,11R)-7-(1,3-Dioxo-2-phenyl-2,3,5,8-tetrahydro-1H-[1,2,4]triazolo[1,2-a]pyridazin-6-yl)-2,3a-dihydroxy-4,8,11-trimethyl-3-oxooctahydro-1H-4,8a-propanoazulen-5-yl 2-Chloroacetate] | 2.6 (±0.2) fold | – | – | – | – | – | – | – | – | – | –
C[C@H]1[C@H](C)CC[C@]2(C(=O)O)CC[C@]3(C)C(=CC[C@@H]4[C@@]5(C)CC[C@H](O)C(C)(C)[C@@H]5CC[C@]43C)[C@H]12 [LX-2001, Ursolic acid] | 1.8 (±0.2) fold | – | – | – | – | – | – | – | – | – | –
C[C@H]1[C@H](C)CC[C@]2(C(=O)O)CC[C@]3(C)C(=CC[C@@H]4[C@@]5(C)C[C@@H](O)[C@H](O)C(C)(C)[C@@H]5CC[C@]43C)[C@H]12 [LX-2002, Corosolic acid] | 1.7 (±0.3) fold | – | – | – | – | – | – | – | – | – | –
CC1(C)CC[C@]2(C(=O)O)CC[C@]3(C)C(=CC[C@@H]4[C@@]5(C)CC[C@H](O)C(C)(C)[C@@H]5CC[C@]43C)[C@@H]2C1 [LX-2003, Oleanolic acid] | 1.9 (±0.2) fold | – | – | – | – | – | – | – | – | – | –
C=C(C)[C@@H]1CC[C@]2(C(=O)O)CC[C@]3(C)[C@H](CC[C@@H]4[C@@]5(C)CC[C@H](O)C(C)(C)[C@@H]5CC[C@]43C)[C@@H]12 [LX-2005, Betulinic acid] | 2.2 (±0.1) fold | – | – | – | – | – | – | – | – | – | –
CC1(C)C=C2[C@H]3CC[C@@H]4[C@@]5(C)CCC(=O)C(C)(C)[C@@H]5CC[C@@]4(C)[C@]3(C)CC[C@@]2(C(=O)O)CC1 [LX-2007, Moronic acid] | 1.6 (±0.2) fold | – | – | – | – | – | – | – | – | – | –
CC1(C)CC[C@]2(NC(=O)C(C)(F)F)CC[C@]3(C)[C@H](C(=O)C=C4[C@@]5(C)C=C(C#N)C(=O)C(C)(C)[C@@H]5CC[C@]43C)[C@@H]2C1 [LX-2101, Omaveloxolone] | 1.9 (±0.2) fold | reduced | improved | similarly improving geriatric depression | reduced | 61 (±12.1) % | 69 (±10.3) % | 79 (±5.6) % | 75 (±2.7) % | 50 (±14.2) % | –
COC(=O)[C@]12CCC(C)(C)C[C@H]1[C@H]1C(=O)C=C3[C@@]4(C)C=C(C#N)C(=O)C(C)(C)[C@@H]4CC[C@@]3(C)[C@]1(C)CC2 [LX-2102, Bardoxolone methyl] | – | – | – | – | reduced | – | – | – | – | – | –
CCCC\C=C/C=C/C=C\CCCCCCCC(=O)O [LX-2707, Punicic acid] | – | reduced | improved | similarly improving geriatric depression | – | 64 (±8.6) % | 73 (±3.2) % | 54 (±3.4) % | 67 (±3.4) % | 51 (±5.2) % | 224 (±12.8) %
COC(=O)[C@H]1Cc2c([nH]c3ccccc23)[C@H](c2ccc(S(C)(=O)=O)cc2)N1C(=O)CCl [LX-5401, methyl (1S,3R)-2-(2-chloroacetyl)-1-(4-(methylsulfonyl)phenyl)-2,3,4,9-tetrahydro-1H-pyrido[3,4-b]indole-3-carboxylate] | – | reduced | improved | similarly improving geriatric depression | – | – | – | – | – | – | –
C#CC(=O)N1[C@@H](CCCC)Cc2cc(OC)ccc2[C@@H]1c1ccc(NC23CC4CC(CC(C4)C2)C3)cc1 [LX-5411] | 3.3 (±0.3) fold | reduced | improved | similarly improving geriatric depression | – | – | – | – | – | – | –
O=C1C2CCN(CC2)C1CNC(=O)C(F)(F)F (centres unmarked) [LX-5701] | 2.7 (±0.3) fold | reduced | improved | – | reduced | 57 (±13.0) % | 70 (±6.7) % | 72 (±7.2) % | 68 (±10.4) % | 63 (±18.4) % | 217 (±20.1) %
Cc1cccc([C@H](C)c2cnc[nH]2)c1C [LX-6807, Dexmedetomidine] | 3.5 (±0.2) fold | reduced | improved | similarly improving geriatric depression | – | 42 (±2.7) % | 53 (±5.1) % | 37 (±2.0) % | 57 (±3.9) % | 48 (±2.1) % | 202 (±18.2) %
Tocofersolan [LX-3001] | – | reduced | improved | – | – | 67 (±7.2) % | 75 (±3.3) % | 61 (±4.7) % | 56 (±6.3) % | 78 (±6.8) % | 168 (±11.9) %
